Measurements taken from patent publication US20160038505A1, “METHODS AND COMPOSITIONS FOR TREATING IMPULSE CONTROL DISORDER, ANXIETY-RELATED DISORDERS, VIOLENCE AND/OR ANGER, OR REGULATING FOOD INTAKE” (priority 2014, published 2016).

Tests used:
[1] = tested on: opioid-dependent participants; assay: QT interval evaluation in opioid-dependent patients; assay type: in vivo, human; conditions: 60, 120, 180 mg, first 24 hours; correlated with serum concentration
Description: Patients' QT intervals were evaluated at regular time points throughout the study.

[2] = tested on: opioid-dependent participants; assay: Time to resumption of opioid substitution treatment and withdrawal scales (COWS, SOWS, OOWS); assay type: in vivo, human
Description: Three cohorts of nine (9) subjects (6 administered noribogaine and 3 administered placebo in each cohort) were evaluated for tolerability, pharmacokinetics, and efficacy. Cohort 1 received a single dose of 60 mg noribogaine or placebo. Cohort 2 received a single dose of 120 mg noribogaine or placebo. Cohort 3 received a single dose of 180 mg noribogaine or placebo.
Patients were evaluated based on the Clinical Opiate Withdrawal Scale (COWS), Subjective Opiate Withdrawal Scale (SOWS), and Objective Opiate Withdrawal Scale (OOWS) scoring systems over the period of time between administration of noribogaine (or placebo) until resumption of OST. These scales are outlined in Guidelines for the Psychosocially Assisted Pharmacological Treatment of Opioid Dependence, World Health Organization, Geneva (2009), Annex 10, which is incorporated herein by reference in its entirety. The scales measure the intensity of withdrawal symptoms, based on clinical, subjective, and objective indicia.

[3] = tested on: adult wild type short-fin zebrafish; assay: Zebrafish novel tank test (NTT), anxiety-related endpoints; assay type: in vivo
Description: A total of 60 adult wild type short-fin zebrafish (˜50:50 male:female ratio) were used in this study. Fish were housed in groups of 20-30 fish per 40-L tank. Tanks were filled with filtered water and maintained at 25° C. Illumination (1000-1100 1×) was provided by ceiling-mounted fluorescent lights on a 12-h cycle (on: 6.00 h, off: 18.00 h) according to the standards of zebrafish care. All fish used in this study were experimentally naïve and fed Tetramin Tropical Flakes (Tetra USA, Blacksburg, Va.) twice a day. Following behavioral testing, the animals were euthanized in 500 mg/L Tricaine (Sigma-Aldrich, St. Louis, Mo.) buffered to pH=7.0. Animal experimentation in this study fully adhered to national and institutional guidelines and regulations.
As such, a 1 mg/L dose of noribogaine (DMX1 or Cpd) was chosen. A standard 20-min pre-treatment time was chosen based on experience with a wide range of other neuroactive compounds and the results of pilot studies. This exposure time was also sufficient for provoking physiological (e.g., cortisol and c-fos) responses of zebrafish to multiple drugs. Noribogaine exposure in this study was performed by submerging individual zebrafish in a 1-L plastic beaker for 20 min prior to the testing. The solution was regularly changed after each exposure, to ensure that each fish is exposed to a consistent concentration of noribogaine. Control fish were exposed to noribogaine-free water for the same treatment time, as described above.
Apparatus: Behavioral testing was performed between 11:00 and 15:00 h using tanks with water adjusted to the holding room temperature (25° C.). The study used the novel tank test (NTT) protocol. NTT represents one of the most commonly used neurophenotyping tests for adult zebrafish. To avoid the test battery or handling effects, each assay was performed once, on a separate individual naïve fish each time. Prior to testing, fish were pre-exposed individually in a 1-L plastic beaker for 20 min to either noribogaine-treated or noribogaine-free water. During testing, zebrafish behavior was recorded by two trained observers blind to the treatments, who manually scored different behavioral endpoints (inter- and intra-rater reliability in all experiments >0.85) with subsequent automated analysis of generated traces by Ethovision XT8.5 software (Noldus IT, Wageningen, Netherlands). The NTT, used to assess zebrafish anxiety and locomotion, was a 1.5-L trapezoidal tank (15 cm height×28 cm top×23 cm bottom×7 cm width; Aquatic Habitats, Apopka, Fla.) maximally filled with water and divided into two equal virtual horizontal portions by a line marking the outside walls. Fish were individually pre-exposed to water (water control) or noribogaine (1, 5 and 10 mg/L) for 20 min and tested in the standard 5-min NTT.
Behavioral analyses: Zebrafish behavior was recorded by trained observers, scoring the latency to reach the top half of the tank(s), time spent in top(s), number of transitions to top, as well as the number and duration(s) of freezing bouts. Freezing was defined as a total absence of movement, except for the gills and eyes, for >2 s. Trials were also recorded to a computer using a USB webcam (2.0-megapixel, Gigaware, UK) and subsequently analyzed by Ethovision XT8.5, assessing distance traveled (m), velocity (m/s), and meandering endpoints. During manual observation, videos were recorded in MPEG1 format with the maximum sample rate 30 fps for each trial by auto-focusing 2.0 MP USB webcams, placed 25 cm in front of the tanks, and attached to laptop computers. Recorded videos were analyzed with Ethovision XT8.5 software. All environments were calibrated for each arena and the calibration axes were placed to designate the origin (0,0) at the center of each tank. The track data for each fish was exported as raw data into separate spreadsheets. […]

[4] = tested on: healthy, drug-free male volunteers; assay: Cold pressor test in healthy volunteers; assay type: in vivo, human; conditions: 3-60 mg single oral dose, 1° C. water
Description: Analgesic effect was assessed based on duration of hand immersion in ice water and on visual analog scale (VAS) pain scores upon hand removal from the water bath.
Safety and tolerability of noribogaine were tested in the group of volunteers from Example 9. […] Safety evaluations included clinical monitoring, recording of adverse events (AEs), safety laboratory tests, vital signs, ECG telemetry from −2 h to 6 h after dosing, and 12-lead electrocardiograms (ECGs) up to 216 hours post-dosing.

cynomolgus monkey = assay: Single dose toxicity in cynomolgus monkeys; assay type: in vivo; conditions: oral gavage
Description: The objective of the study was to determine the toxicity and toxicokinetic profile of noribogaine following oral (gavage) administration to the cynomolgus monkey. Each dose was followed by a 7 day washout period. Dosing was staggered by 45 minutes. On study day 15, one animal was administered 80 mg/kg and the other animal was administered 160 mg/kg. The test article was administered as follows in Table 1:
Parameters monitored on the study included: mortality, clinical signs and body weights. Blood samples were collected for TK evaluation. […] The single dose maximum tolerated dose (MTD) was determined to be greater than 160 mg/kg based on the parameters monitored during the study.

[5] = tested on: healthy, drug-free male volunteers; assay: Pupillometry (pupillary miosis) in healthy volunteers; assay type: in vivo, human; conditions: 3-60 mg single oral dose, vs placebo p>0.9
Description: Pulse oximetry and capnography data were collected continuously using a GE Carescape B650 monitoring system from 2 hours prior to dosing and until six hours after dosing, and thereafter at 12, 24, 48 and 72 hours post-dosing. […] Pupillary miosis was assessed by pupillometry.

CC[C@H]1CC2C[C@H]3c4[nH]c5ccc(O)cc5c4CCN(C2)C13 [noribogaine]
QT interval prolongation (ΔQTcl) [1]: dose-dependent increase in QT interval prolongation | withdrawal symptoms (COWS, OOWS, SOWS), first six hours following dosing ([2]; 120 mg): generally experienced fewer withdrawal symptoms than the other patients | average time to resumption of opioids (OST) ([2]; single 120 mg dose): greater than 20 hours | anxiolytic-like behavior ([3]; 1 mg/L): robust anxiolytic-like behavior without any overt hyperactivity/hypoactivity or circling behaviors | efficacy, pilot experiments ([3]; 1 mg/L): sub-maximal efficacy | distance moved and velocity ([3]; 1-, 5- and 10-mg/L): moderate, but non-significant, decrease | freezing bouts frequency and duration of freezing ([3]; 1-, 5- and 10-mg/L): no difference in freezing bouts frequency | movement mobility (HF hi-mobility events) ([3]; 1-, 5- and 10-mg/L): dose-related disappearance of HF hi-mobility events | transitions to upper half of the tank ([3]; 1-, 5- and 10-mg/L vs control): none of the treatment groups showed a statistically significant change | overall turning rates and patterns (meander total) ([3]; 5- and 10-mg/L): statistically significant decrease in overall turning rates and patterns (meander) | swimming motor activity, pilot experiments ([3]; 5- and 10-mg/L): caused reduction in selected swimming motor activity levels | number of top transitions ([3]; 5 and 10 mg/L (control 10)): ~7 | EC50 ([3]; Danio rerio, 20 min, water immersion 20 min, read-out: half-efficacy on indices of anxiety levels (time in top, latency in top)): < 1 µg/mL | time spent in top portion of the tank ([3]; each of 1-, 5- and 10-mg/L): statistically significant increase in the duration of time spent in the defined top portion of the tank | latency to the upper half of the tank ([3]; each of 1-, 5- and 10-mg/L, 20 min immersion, 5-min NTT): statistically significant decrease in latency to the upper half of the tank | turning/rotation rate ([3]; significant at the 10 mg/L dose): decrease in turning/rotation rate | analgesic effect (duration of hand immersion, VAS pain scores) [4]: no analgesic effect | single dose maximum tolerated dose (MTD) (cynomolgus monkey): greater than 160 mg/kg | mortality and clinical signs (cynomolgus monkey; doses up to and including 160 mg/kg): No mortality or treatment related clinical signs | pupillary constriction (pupil diameter) [5]: no evidence of pupillary constriction
